# Laboratory results reported in paper PMC5342591, “Development of a selected reaction monitoring mass spectrometry-based assay to detect asparaginyl endopeptidase activity in biological fluids” (Oncotarget, 2016).
# Square brackets hold non-standard residues; d marks the D form. Peptide text beside a SMILES is read from it.
# Legend:
# [1] = target: T1, recombinant human AEP (rAEP) (Homo sapiens, UniProt Q99538); assay: Michaelis-Menten / Lineweaver-Burk kinetics of rAEP with synthetic substrate, product measured by SRM-MS; format: biochemical; details: 16 hr incubation at 37°C; 10 ng rAEP; substrate 0.02 mM to 1.3 mM; Lineweaver-Burk plot; SRM-MS peak area of product; n = 3
# T1 construct: 7xHis (N); purchased R & D Systems, Abingdon, UK; host or cells: NS0 murine myeloma cell line
# T1 sequence (Q99538 18-323 limits assumed): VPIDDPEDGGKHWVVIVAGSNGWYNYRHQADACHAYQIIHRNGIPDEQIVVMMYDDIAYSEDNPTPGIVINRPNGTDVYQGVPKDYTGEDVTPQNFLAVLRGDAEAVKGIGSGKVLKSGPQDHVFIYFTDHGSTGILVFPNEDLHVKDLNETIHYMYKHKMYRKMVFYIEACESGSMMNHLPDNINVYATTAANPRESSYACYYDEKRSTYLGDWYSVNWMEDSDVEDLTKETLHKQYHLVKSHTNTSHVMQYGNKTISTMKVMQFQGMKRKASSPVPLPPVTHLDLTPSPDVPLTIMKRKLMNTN
# Experimental: Figure 3 Development of Assay Conditions to Monitor AEP Activity in Plasma A. The level of hydrolysis of AEP substrate with respect to time. 2.44 ng/μl and 9.1 ng/μl of rAEP were spiked into a background of pH modified plasma (pH 5.8) and assayed by SRM-MS for the product peptide. Error bars shown are +/−SD (n = 3). B-C. Rate of AEP activity assayed with different concentrations of substrate (hpvFAANDVSKvph) ranging from 0.02 mM to 1.3 mM. Area under the curve, drawn from SRM-MS of the product peptide, was used to obtain the rate of reaction for AEP activity as shown in Michaelis-Menten Curve (B). […] D. The linearity and limit-of-detection of the AEP assay was investigated by measuring the amount of hydrolysis by 2.0 pg to 0.25 ng of rAEP spiked into 25 μl of plasma and product measured by SRM-MS of Error bars shown are +/−SEM (n = 3). The assay was repeated three times and a technical variance of 3-28% was calculated.
# To optimise substrate concentration in our assay, 10 ng of rAEP was incubated with 0.02 mM to 1.3 mM of synthetic substrate for 1 hr, 4 hr (Supplementary Figure S2) or 16 hr (Figure 3B and 3C) at 37°C. The rate of reaction was determined from the amount of product formed per hour and used for Michaelis-Menten enzyme kinetic analysis (Figure 3B). […]
# All samples were analysed on a 6500 Q-TRAP (AB Sciex, Warrington, UK) coupled to a nano Acquity uPLC (Waters Inc, MA, US). […]
# [2] = Stability of cleaved substrate in plasma, SRM-MS; format: in vitro ADME; details: human plasma 25 μl diluted fivefold in assay buffer pH 5.8, 1 pmole to 1 amole spiked, ACN precipitation, n = 3
# Experimental: Figure 2 Detection of Cleaved Substrate Peptide by Mass Spectrometry A-B. 10 ng of recombinant AEP (rAEP) was incubated with 1 μg (0.65 mM) synthetic substrate peptide (hpvFAANDVSKvph) overnight at 37°C. Samples were dried down by vacuum centrifuge and resuspended in LB. 5 pmole of the substrate was loaded on to the liquid chromatography column and cleaved substrate was analysed by SRM MS (A) followed by an DDA workflow (B). (A) Three SRM transitions (b4-481.25^+, b5-552.29^+, b6-623.33^+) were used to detect the cleaved substrate, sequenced as hpvFAAN (378.2^2+ precursor ion). The target peptide eluted at 32 min during the chromatographic gradient. (B) Product ion scans of precursor 378.2^2+ as analysed by DDA. C. […] Samples were resuspended in LB and analyzed by SRM MS. […]
# For an assay to measure enzyme activity it is important that the product is stable for the duration of the assay and is present at a level that can be detected. The limit of detection (LOD) and stability of the product hpvFAAN were analysed by serial dilution down to 1 amole in the presence or absence of plasma using SRM MS analysis. This allowed the LOD to be calculated as 2 amole with a linear response up to 1 pmole without a plasma background (Figure 2C). […]
SMILES,Km [1] [µM],Stability of the product in plasma [2]
CC(C)[C@H](NC(=O)[C@H](CC(=O)O)NC(=O)[C@H](CC(N)=O)NC(=O)[C@H](C)NC(=O)[C@H](C)NC(=O)[C@H](Cc1ccccc1)NC(=O)[C@H](NC(=O)[C@H]1CCCN1C(=O)[C@H](N)Cc1c[nH]cn1)C(C)C)C(=O)N[C@@H](CO)C(=O)N[C@@H](CCCCN)C(=O)N[C@@H](C(=O)N1CCC[C@@H]1C(=O)N[C@H](Cc1c[nH]cn1)C(=O)O)C(C)C [hpvFAANDVSKvph] (H-[dH][dP][dV]FAANDVSK[dV][dP][dH]-OH),400,–
CC(C)[C@@H](NC(=O)[C@H]1CCCN1C(=O)[C@H](N)Cc1c[nH]cn1)C(=O)N[C@@H](Cc1ccccc1)C(=O)N[C@@H](C)C(=O)N[C@@H](C)C(=O)N[C@@H](CC(N)=O)C(=O)O [hpvFAAN] (H-[dH][dP][dV]FAAN-OH),–,stable
